Assay [1] concerns the target T1, CYP17A1 (Homo sapiens, UniProt P05093).
T1 construct: endogenous in cells; host or cells: H295R
T1 sequence (P05093 1-508): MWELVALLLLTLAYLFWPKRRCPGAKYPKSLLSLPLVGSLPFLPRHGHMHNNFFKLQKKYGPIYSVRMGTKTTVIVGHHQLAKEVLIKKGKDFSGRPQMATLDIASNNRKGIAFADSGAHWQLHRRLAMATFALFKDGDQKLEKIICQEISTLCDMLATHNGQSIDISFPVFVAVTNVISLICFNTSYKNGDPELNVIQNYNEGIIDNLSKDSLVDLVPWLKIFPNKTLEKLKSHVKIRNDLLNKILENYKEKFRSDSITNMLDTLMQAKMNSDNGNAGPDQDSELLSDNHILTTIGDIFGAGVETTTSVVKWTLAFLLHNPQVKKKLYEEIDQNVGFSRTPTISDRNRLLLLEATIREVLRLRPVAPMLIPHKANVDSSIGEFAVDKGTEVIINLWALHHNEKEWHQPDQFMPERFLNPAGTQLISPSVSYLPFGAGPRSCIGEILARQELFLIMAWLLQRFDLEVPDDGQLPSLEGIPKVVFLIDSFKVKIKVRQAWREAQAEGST
Kind of assay: H295R cell assay, CYP17A1 hydroxylase and lyase activity. The format is cell-based. As to conditions: for IC50: 48 hours, mean over 6 to 15 measurements ± standard error. The method, then:
(§1) The H295R steroid hormone synthesis assay was performed according to the OECD validation guideline. Cells were cultured in DMEM/F12 media supplemented with 1% ITS-premix and 2.5% Nu-serum at 37 °C with a 5% CO2 atmosphere. The cells were only used for experiments between passage […]. During exposure experiments, cells were grown in 24 well plates with a density of 3 × 10^5 cells/mL. […] To avoid interference from low levels of steroid hormones present in the Nu-serum, the exposure experiment was conducted with serum-free media. Each compound was tested at a minimum of seven concentration levels using three or more replicates and the experiment was repeated on two different days (n = 6–15). On each test plate a solvent control (SC) (medium with 0.1% DMSO) was included in triplicate and the maximal concentration of DMSO in the cell medium was 0.1%[49]. After 48 hours of incubation in presence of the test compounds, 950 μL of the medium was carefully removed and internal standards (50 μl of 0.1 μg/μl solution containing deuterated steroid analogues) were added. Samples were stored at −20 °C for later analysis.
Steroid extraction and clean-up were performed by double protein precipitation. First, 900 μL of cold acetonitrile were added to the samples, which were then vortexed and centrifuged at ~9500 × g for 10 minutes. Second, 900 μL cold methanol was added to the supernatant and the mixture was vortexed and centrifuged at 1500 × g for 10 minutes. Finally, the supernatant was collected and concentrated to ~1 mL under a gentle stream of nitrogen at 60 °C.
For on-line solid phase extraction (SPE) of steroids, a total of 100 μL was injected on a binary 1290 Agilent Infinity Series system and a binary 1100 Agilent HPLC pump were used in combination (Agilent Technologies, Palo Alto, CA, USA). For online clean-up, a C18 enrichment column (μbondapak® C18, 3.9 × 20 mm, 10 μm, Waters) was used. The enrichment column was connected to the autosampler through the TTC switching valve (two positions, 6 ports). Between the autosampler and the TTC switching valve a 0.3 μm in-line filter (1290 infinity in-line filter, Agilent) was installed. Separation of steroid hormones was performed using a C18 analytical column (Kinetex, 2.6 μm C18 100 Å, 75 × 2.1 mm, Phenomenex, USA). An isocratic flow of 1 mL/min H2O:methanol:formic acid at 90:10:0.1 (v/v/v) was generated by the 1100 pump which was connected to the autosampler. The 1290 pump performed a gradient elution with a flow rate of 0.3 mL which was connected to the TTC switching valve. Mobile phase A and B were composed of H2O with 0.1% formic acid (v/v) and pure methanol, respectively. The elution gradient was maintained at 10% B for the first 2 min, changed to 10.0–30.0% from 2.0 to 2.2 min, 30.0–60.0% from 2.2 to 8.0 min, maintained at 60.0% from 8.0 to 10.0 min, increased to 60.0–85.0% from 10.0 to 12.30 min, 85.0–99.5% from 12.3 to 12.5 min and held at 99.5% from 12.5 to 14.8 min, before re-equilibrating the column until 16 minutes.
For detection, an AB SCIEX 4500 QTRAP mass spectrometer (Applied Biosystems, Foster City, CA, USA) equipped with an atmospheric pressure chemical ionization (APCI) Turbo V source was used. Multiple reaction monitoring (MRM) was performed in positive mode during the analysis with a targeted scan time of 0.8 sec. Nitrogen was applied as curtain, collision, and ion source gases.

In assay [2] the target is T2, CYP21A2 (Homo sapiens, UniProt P08686).
T2 sequence (P08686 1-495): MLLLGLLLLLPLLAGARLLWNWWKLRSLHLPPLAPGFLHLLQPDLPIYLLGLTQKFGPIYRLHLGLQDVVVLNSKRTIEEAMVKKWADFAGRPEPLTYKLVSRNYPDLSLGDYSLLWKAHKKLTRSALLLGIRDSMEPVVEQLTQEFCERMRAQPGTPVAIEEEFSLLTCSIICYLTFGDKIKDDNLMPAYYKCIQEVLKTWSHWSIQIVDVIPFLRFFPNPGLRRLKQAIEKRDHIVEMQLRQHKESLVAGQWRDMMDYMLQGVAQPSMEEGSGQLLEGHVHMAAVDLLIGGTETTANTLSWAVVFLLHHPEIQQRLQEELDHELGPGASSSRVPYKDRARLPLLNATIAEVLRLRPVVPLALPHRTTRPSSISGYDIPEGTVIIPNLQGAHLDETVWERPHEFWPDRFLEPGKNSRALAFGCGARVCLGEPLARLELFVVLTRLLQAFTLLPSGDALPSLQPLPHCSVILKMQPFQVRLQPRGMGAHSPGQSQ
Nature of the assay: H295R cell assay, CYP21A2 activity. Particulars: H295R cells. The assay is classed as cell-based. The method, then: This cellular assay was also used to evaluate inhibitor selectivity.
as §1

Setting [3] is: based on conversion of PRE into 17-OH-PRE, read-out: IC50 hydroxylase, H295R system.
Setting [4] is: based on conversion of 17-OH-PRE into DHEA, read-out: IC50 lyase, H295R system.

The record followed here is paper PMC4942611, “Promising Tools in Prostate Cancer Research: Selective Non-Steroidal Cytochrome P450 17A1 Inhibitors” (Scientific Reports, 2016).

Like-named read-outs stand apart in the source and are kept apart here.

With `C[C@]12CC[C@H](O)CC1=CC[C@@H]1[C@@H]2CC[C@]2(C)C(c3cccnc3)=CC[C@@H]12` [abiraterone, reference compound], in assay [1] (H295R cells), the “Inhibitor concentrations at which CYP17A1 is inhibited (only CYP17A1 affected)” value is 2.5 to 10 nM. For the same compound, the IC50 in assay [1] (setting [3]) was 9.4 ± 0.3 nM. Further, the “Inhibitor concentrations at which CYP21A2 is inhibited” value in assay [2] lay within 30 to 3000 nM.

Take `Cc1ccc(-c2csc(-c3cccnc3)n2)c(C)c1` [Compound 1]: the values for the IC50 in assay [1] (setting [4]) and in assay [1] (setting [3]) were 94 ± 30 nM and 830 ± 80 nM, respectively. For the same compound, the “Inhibitor concentrations at which CYP21A2 is inhibited” value in assay [2] is “greater than 1000 nM”.

Consider `CCCn1nnc2cc(-c3cc(-c4ccncc4)c(C#N)c(N)n3)ccc21` [Compound 2], for which the values for the IC50 in assay [1] (setting [4]) and in assay [1] (setting [3]) were 7.4 ± 0.1 nM and 52 ± 4 nM, respectively. Also, the “Inhibitor concentrations at which CYP21A2 is inhibited” value in assay [2] is “above 1000 nM”.
